{"source": "patent US9050301B2", "about": "“Pharmaceutical composition for treatment of corneal endothelial wounds containing angiogenin” (Chung-Ang University Industry-Academy Cooperation Foundation, priority 2013, dated 2015)", "key": {"[1]": {"system": "rabbit corneal endothelium", "assay": "Alizarin red S-staining of corneal endothelium wounded area", "format": "in vivo", "settings": "for Corneal endothelium wounded area observed by alizarin red S-staining: 192 hours (8th day) after freeze damage, compared with control group (p=0.050); for Morphology (hexagonality) of endothelial cells around the wounded area: 192 hours, 200× magnification", "description": "(§1) 30 eyeballs of 15 healthy white New Zealand rabbits weighing about 2.0 kg to about 3.0 kg without external opacification were anesthetized by intramuscular injection with 12.5 mg/kg of tiletamine/zolazepam (Zoletil®, VirbacLab, France) and 12.5 mg/kg of zylazine (Rompun®, BayerKorea, Korea). Afterwards, 0.5% povidone-iodine was used for disinfection of the whole range of experimental sight. Referring to FIG. 1, an 8 mm-diameter stainless steel rod as a probe was immersed in liquid nitrogen for 3 minutes, removed therefrom once the temperature of the liquid nitrogen reached −196° C., and brought into contact to the central cornea for 15 seconds. Then, each of the eyeballs was washed with 10 cc of 0.9% saline solution. In order to prevent the occurrence of corneal infection, the rabbit corneas were given instillation of Levofloxacin (Cravit®, Santen, Japan) three times a day for 3 days after the damage was induced.\n(§2) 3 groups consisting of 10 eyeballs given instillation of angiogenin (200 μg/mL), 7 eyeballs given Y-27632 (10 mM) inhibitor of Rho-associated coiled-coil kinase (ROCK) pathway, and 7 eyeballs as a control group given phosphate-buffered solution (PBS) were each subjected to 50 μl of instillation at a time, and more particularly, 6 times a day for the first 2 days, and then, 4 times a day for the following 2 days, starting immediately after inducing freeze-damages to the trans-corneal endothelium. That is, the instillation was performed 20 times in total for 4 days.\nTwo eyeballs out of 30 eyeballs in total were each used as a negative control group of normal corneal endothelium and as a positive control group being subjected to alizarin red S-staining immediately after inducing freeze-damages to the trans-corneal endothelium. An overdose of KCl was administrated into the rest of the eyeballs by intramuscular injection 192 hours (8th day) after inducing freeze-damages to the trans-corneal, and accordingly, these eyeballs were sacrificed. Then, 3 eyeballs were removed for each of the control group, the group given angiogenin instillation, and the group given Y-27632 instillation. Then, the whole cornea was pulled off with respect to the corneal limbal boundary, immersed in 1% alizarin red S-staining solution (Lab Chem, Pittsburgh, USA) for 2 minutes, washed with 0.9% saline solution, and then, wet-mount with the endothelium facing upward. Images thereof were immediately obtained after observation by using an optical microscope, and then, the wounded area of the cornea was measured in pixels for a digital image at 40× magnification by using the Image J software (National Institutes of Health (NIH); http://rsbweb.nih.gov/ij/), and the endothelial cells around the wounded areas were observed and compared in terms of hexagonality at 200× magnification."}, "[2]": {"system": "rabbit corneal endothelium", "assay": "Ratio of corneas without opacity and edema (digital camera images) after trans-corneal freezing damage", "format": "in vivo", "settings": "angiogenin 200 μg/mL", "description": "as §1, §2\n(§3) Then, the groups were subjected to the evaluation of corneal opacity and corneal edema by using a digital camera (VLUUNV100HD, Samsung, Suwon, Korea) to obtain images taken in a diagonal direction.\n(§4) Experiments have been carried out to identify effects of angiogenin-induced PI3k-Akt signaling pathway in terms of recovering the corneal transparency after inducing damages to the corneal endothelium. After inducing freeze-damages to the corneal endothelium, 4 eyeballs out of 30 rabbit eyeballs in total were subjected to 50 μl of each of 200 μg/mL of angiogenin and 200 μM of PI3k-Akt pathway inhibitor, LY294002 instillation at a time every 3 minutes, and more particularly, 6 times a day for the first 2 days, and then, 4 times a day for the following one day. That is, the instillation was performed 16 times in total for 3 days."}, "[3]": {"system": "rabbit corneal endothelium", "assay": "Corneal transparency grade by slit-lamp after trans-corneal freezing damage", "format": "in vivo", "settings": "mean ± SE", "description": "as §1, §2, §3, §4"}, "[4]": {"system": "rabbit corneal endothelial cells", "assay": "In vitro scratch wound healing of cultured rabbit corneal endothelial cells", "format": "cell-based", "settings": "for Wound healing index: angiogenin 2 μg/ml, mean ± SE", "description": "A corneal endothelial tissue segment obtained from remaining corneal portions other than the central 8 mm corneal portion in cadaveric cornea donated for transplantation and a corneal endothelial tissue segment of a normal rabbit were cultured. Then, each of the corneal tissues was divided into 6 pieces and washed by shaking 6 times in a petri dish to which 7 ml of 5% penicillin/streptomycin (P/S) was added. Then, the washed tissues were each transferred to a 6-well dish such that the endothelial layer was facing down, and the tissues were semi-dried until the dishes were slightly drained. Next, the corneal endothelial cells of the rabbit cornea were cultured in a culture medium (EGM™-2BulletKit™, Lonza, Allendale, USA) containing human epidermal growth factor (hEGF), hydrocortisone, 5% fetal bovine serum (FBS), human […] (hFGF), insulin-like growth factor (IGF), ascorbic acid, gentamicin, and amphotericin-B (EGM™-2BulletKit™, Lonza, Allendale, USA), and the corneal endothelial cells of the human cornea were cultured in a culture medium (Opti-MEM®, Gibco®, New York, USA) supplemented with 8% FBS, calcium (CaCl2), chondroitinsulfate, ascorbic acid, multi-vitamin solution, gentamicin, anti-Pseudomonas aeruginosa antibiotic, pituitary extract, epidermal growth factor (EGF), and nerve growth factor (NGF), for about 5 to 7 days.\nExperiments have been carried to identify angiogenin effects on migration and proliferation of the corneal endothelial cells. When the cultured rabbit corneal endothelial cells had about 80-90% confluency in three 6-well dishes, the central part of each well was scratched by a tip of a 200 μl pipette to make wounds. Then, each of the three 6-well dishes was replaced by a culture medium containing 1) 5% FBS (in the control group), 2) Y-27632 (10 μM), and 3) angiogenin (2 μg/ml). At every 0 hour, 12 hours, 24 hours, and 48 hours, digital images of the remaining wounded areas were obtained at 40× magnification of the optical microscope, and measured in pixels by using the Image J software. In addition, each of the three 6-well dishes containing the cultured corneal endothelial cells in the human was scratched in the same manner as described above to make wounds, and then, replaced by a culture medium containing 1) 5% FBS (in the control group), 2) Y-27632 (10 μM), and 3) angiogenin (5 μg/ml). At every 6 hours and 24 hours, the wounded areas were measured by using the Image J software. The ratio of initial wounded area versus recovered area was defined as wound healing index, which is calculated as shown below. Here, the initial wounded area was corrected to be equal before the calculation. Wound healing index(%)=(Initial wounded area−Remaining wounded area)/Initial wounded area"}, "[5]": {"settings": "48 h after freeze damage, Y-27632 10 mM instillation"}, "[6]": {"settings": "72 h after freeze damage, Y-27632 10 mM, LY294002 200 μM instillation"}, "[7]": {"settings": "144 h after freeze damage, Y-27632 10 mM instillation"}, "[8]": {"settings": "192 h after freeze damage, Y-27632 10 mM instillation"}, "[9]": {"settings": "48 h after freeze damage, instillation 50 μl (angiogenin 200 μg/mL, Y-27632 10 mM), grade 0 transparent to +4.0 turbid (Table 1)"}, "[10]": {"settings": "72 h after freeze damage, instillation 50 μl (angiogenin 200 μg/mL, Y-27632 10 mM, LY294002 200 μM), grade 0 to +4.0 (Table 1)"}, "[11]": {"settings": "144 h after freeze damage, instillation 50 μl (angiogenin 200 μg/mL, Y-27632 10 mM), grade 0 to +4.0 (Table 1)"}, "[12]": {"settings": "192 h after freeze damage, instillation 50 μl (angiogenin 200 μg/mL, Y-27632 10 mM), grade 0 to +4.0 (Table 1)"}}}
{"compound": "Angiogenin: 14.4-kDa single chain protein of 123 amino acids, secreted protein capable of inducing angiogenesis", "values": [{"measurement": "Corneal endothelium wounded area observed by alizarin red S-staining", "setting": "[1]", "result": "smallest the corneal endothelium wounded area"}, {"measurement": "Morphology (hexagonality) of endothelial cells around the wounded area", "setting": "[1]", "result": "corneal endothelial cells in even hexagonality"}, {"measurement": "Ratio of number of cornea without opacity and edema (digital camera images)", "setting": "[2]; [5]", "result": 10, "unit": "%"}, {"measurement": "Ratio of number of cornea without opacity and edema (digital camera images)", "setting": "[2]; [6]", "result": 20, "unit": "%"}, {"measurement": "Ratio of number of cornea without opacity and edema (digital camera images)", "setting": "[2]; [7]", "result": 37.5, "unit": "%"}, {"measurement": "Ratio of number of cornea without opacity and edema (digital camera images)", "setting": "[2]; [8]", "result": 50, "unit": "%"}, {"measurement": "Grade of corneal transparency (by using slit-lamp biomicroscope)", "setting": "[3]; [9]", "result": "4.00 ± 0"}, {"measurement": "Grade of corneal transparency (by using slit-lamp biomicroscope)", "setting": "[3]; [10]", "result": "2.65 ± 0.37"}, {"measurement": "Grade of corneal transparency (by using slit-lamp biomicroscope)", "setting": "[3]; [11]", "result": "1.29 ± 0.26"}, {"measurement": "Grade of corneal transparency (by using slit-lamp biomicroscope)", "setting": "[3]; [12]", "result": "1.29 ± 0.26"}, {"measurement": "Wound healing index", "setting": "[4]; 12 hours", "result": "28.7±2.9", "unit": "%"}, {"measurement": "Wound healing index", "setting": "[4]; 24 hours", "result": "66.7±4.3", "unit": "%"}, {"measurement": "Wound healing index", "setting": "[4]; 48 hours", "result": "78.7±2.9", "unit": "%"}]}
{"compound": "C[C@@H](N)[C@H]1CC[C@H](C(=O)Nc2ccncc2)CC1", "note": "[Y-27632, reference compound]", "values": [{"measurement": "Corneal endothelium wounded area observed by alizarin red S-staining", "setting": "[1]", "result": "smaller wounded areas than those of the control group"}, {"measurement": "Morphology (hexagonality) of endothelial cells around the wounded area", "setting": "[1]", "result": "significant modification of cell morpology"}, {"measurement": "Ratio of number of cornea without opacity and edema (digital camera images)", "setting": "[2]; [5]", "result": 0, "unit": "%"}, {"measurement": "Ratio of number of cornea without opacity and edema (digital camera images)", "setting": "[2]; [6]", "result": 14.3, "unit": "%"}, {"measurement": "Ratio of number of cornea without opacity and edema (digital camera images)", "setting": "[2]; [7]", "result": 14.3, "unit": "%"}, {"measurement": "Ratio of number of cornea without opacity and edema (digital camera images)", "setting": "[2]; [8]", "result": 14.3, "unit": "%"}, {"measurement": "Grade of corneal transparency (by using slit-lamp biomicroscope)", "setting": "[3]; [9]", "result": "4.00 ± 0"}, {"measurement": "Grade of corneal transparency (by using slit-lamp biomicroscope)", "setting": "[3]; [10]", "result": "3.00 ± 0.41"}, {"measurement": "Grade of corneal transparency (by using slit-lamp biomicroscope)", "setting": "[3]; [11]", "result": "1.38 ± 0.38"}, {"measurement": "Grade of corneal transparency (by using slit-lamp biomicroscope)", "setting": "[3]; [12]", "result": "1.38 ± 0.38"}, {"measurement": "Wound healing index compared with the control group", "setting": "[4]; Y-27632 10 μM, 12, 24, 48 hours", "result": "did not show significant difference"}]}
